Assays:
[1] = system: HA1E cells expressing MycER; assay: Cell death on acute activation of MYC (MycER + 4-OHT), HA1E; assay type: cell-based, human; settings: 3 days; for cell death, agent alone: single agent
Description: (§1) Cell viability was determined by the trypan blue exclusion assay. Each column represents the average of 3 independent experiments, and each experiment was done in triplicate. Error bars represent one standard deviation. FIG. 1(B) illustrates the cytotoxicity of H-1152 for normal cells and a MYC-overexpressing human cancer cell line IM-9. H-1152 was applied to the indicated cells at 6 μM for 3 days. Cell viability, was determined by the trypan blue exclusion assay. A representative experiment is shown. […] Rat1A cells harboring either an empty vector or various indicated oncogenes were treated with either 0.1% DMSO or 6 μM H-1152 for 3 days. Cell viability was determined by the trypan blue exclusion assay. Each column represents the average of 3 independent experiments, and each experiment was done in triplicate. Error bars represent one standard deviation. […] Rat (Rat1A) or human (HA1E and IMR-90) cells expressing either MycER or MycNER were incubated with or without 6 μM H-1152 and/or 200 nM 4-OHT for 3 days. Cell viability was determined by the trypan blue exclusion assay. A representative experiment is shown.
(§2) In order to negate the possibility that sustained expression of MYC gene has given rise to unidentified targets affected by H-1152, sensitivity of H-1152 in acutely activated cells was measured. Acute activation of MYC was exploited by means of a MYC-estrogen receptor chimera. This receptor is rapidly activated by the addition of 4-hydroxy-tamoxifen (“4-OH”). […] FIG. 1D. A similar experiment was conducted with acute activation of the MYCN gene. MYCN shares high sequence similarity and crucial biochemical and genetic activities with MYC. […] Accordingly, H-1152 elicits MYC-dependent cell lethality irrespective of whether MYC is constitutively expressed or acutely activated. Furthermore, this sensitivity holds true for both fibroblasts cells and epithelial cells.

[2] = system: IMR-90 cells expressing MycER; assay: Cell death on acute activation of MYC (MycER + 4-OHT), IMR-90; assay type: cell-based, human; settings: IMR-90 MycER, 3 days; for cell death, agent alone: single agent
Description: as §1, §2

[3] = system: NCI-H841 xenograft tumors; assay: Xenograft tumor growth in athymic mice, NCI-H841; assay type: in vivo; settings: Myc^high NCI-H841, 60 mg/kg oral gavage twice a day
Source text: (§3) FIG. 7. illustrates how H-1152 elicits therapeutic efficacy against tumorigenesis of cancer cells that overexpress MYC. […] Extracts from four human cancer cell lines (1. NCI-H524, 2. NCI-H841, 3. NCI-H211, 4. NCI-H2199) were blotted for MYC and tubulin by Western blotting. […] See Appendix D for Method of Mouse In Vivo Assay. Two Myc^high cell lines and two Myc^low cell lines were implanted subcutaneously into athymic mice (One to ten millions of cells per injection). When tumors reached approximately 50-70 mm^3, tumor-bearing mice were randomized to receive oral gavage with either vehicle of H-1152 (60 mg/kg body weight per injection) twice a day until the endpoint. The tumor volume was determined at the indicated time points.
(§4) To determine whether tissue culture results can be replicated in vivo, two cell lines from Myc^High group, namely NCI-H841 and NCI-H524, and two cell lines from Myc^low group, namely NCI-H211 and NCI-H2199. […]
(§5) Experimental mice are housed and treated according to the protocol approved by the Institutional Animal Care and Use Committee of MBICR. […] Tumor diameter at injection sites are monitored at the indicated time points with a digital caliper and the volume calculated using the formula: V (mm3)=A×B×B/2, where A and B represent the largest and smallest diameters of the tumor respectively.

RPE-MYC cells [4] = assay: Apoptosis assays (immunofluorescence, Mitotracker) in RPE-MYC cells; assay type: cell-based, human; settings: 6 μM
Description: RPE-MYC cells were exposed to 6 μM H-1152 for 48 hours and then incubated for 30 minutes with 40 nM MITOTRACKER Red (Molecular Probes) and fixed. Fixed cells were stained for DNA with DAPI (in blue) and then analyzed with a confocal laser microscope. Arrowheads indicate apoptotic nuclei. Scale bar, 10 μm. See Appendix A—for Immunofluorescence Microscopy method. […] RPE-MYC and RPE-NEO cells were treated with 0.1% DMSO or 6 μM H-1152 for 3 days and then subjected to the indicated assays. Each column represents the average of 3 independent experiments, and each experiment was done in triplicate. Error bars represent one standard deviation.
FIG. 2B. […] FIB 2A. […]
Cells are cultured on coverslips in a 6-well plate, fixed with 4% paraformaldehyde or 4% paraformaldehyde followed with methanol treatment, and then permeabilized with 0.3% Triton X-100. […] Primary antibodies are detected with Texas red-conjugated or fluorescein isothiocyanate-conjugated secondary antibodies that may be purchased from Jackson ImmunoResearch. […]
For determination of mitochondrial membrane potential, cells are cultured on cover slips and exposed for 30 min at 37° C. with 40 nM Mitotracker# Red CMXRos (Molecular Probes), a dye that accumulates in mitochondria as a function of the mitochondrial potential. […] For fluorescence detection, an EVOS FL auto microscope (THERMO FISHER) can be used.

RPE-MYC cells [5] = assay: Trypan blue exclusion cell viability assay in RPE-MYC cells; assay type: cell-based, human; settings: 72 hours
Description: as §1
FIG. 3(B) illustrates how H-1152, but not other inhibitors of ROCK kinases, preferentially kills RPE-MYC cells. […] Cell viability was determined by the trypan blue exclusion assay. […]

RPE-NEO cells = assay: Trypan blue exclusion cell viability assay in RPE-NEO cells; assay type: cell-based, human; settings: 6 μM H-1152, 3 days
Description: as §1
In order to confirm that H-1152 elicits cytotoxicity in cells overexpressing MYC, human retinal pigment epithelial cells were stably transfected with either MYC or a Neomycin selection marker gene (“NEO”) in combination with hTERT. […]

[6] = system: NCI-H2199 xenograft tumors; assay: Xenograft tumor growth in athymic mice, NCI-H2199; assay type: in vivo; settings: Myc^low NCI-H2199, 60 mg/kg oral gavage twice a day
Source text: as §3, §4, §5

[7] = system: cells expressing MYCN-estrogen receptor chimera; assay: Cell death on acute activation of MYCN (MycNER + 4-OHT); assay type: cell-based; settings: MYCN-ER activated with 4-OHT, H-1152 application
Description: as §1
In order to negate the possibility that sustained expression of MYC gene has given rise to unidentified targets affected by H-1152, sensitivity of H-1152 in acutely activated cells was measured. Acute activation of MYC was exploited by means of a MYC-estrogen receptor chimera. […]

[8] = system: Rat1A cells expressing MYC or other oncogenes; assay: Trypan blue exclusion cell viability assay in Rat1A cells harboring various oncogenes; assay type: cell-based, rat; settings: 6 μM, 3 days
Description: as §1
To determine whether cytotoxicity by H-1152 is dependent on MYC-expression or any oncogene, rat 1A cells expressing MYC as well as other active cellular oncogenes were evaluated for lethality. […] FIG. 1C.

[9] = system: normal cells and immortalized cells; assay: Trypan blue exclusion cell viability assay in normal and immortalized cells; assay type: cell-based; settings: 6 μM, 3 days
Description: as §1
(§6) The result after 3-days treatment were similar. […] The one observed exception is the IM-9 cells that overexpress MYC. Cell lethality in the IM-9 cell line was approximately 30% after H-1152 treatment for 3 days. FIG. 1B.

IM-9 cells = assay: Trypan blue exclusion cell viability assay in IM-9 cells; assay type: cell-based, human; settings: IM-9, 6 μM, 3 days
Description: as §1, §6

[10] = system: Myc^low human cancer cell lines; assay: Cytotoxicity in Myc^low human cancer cell lines (trypan blue); assay type: cell-based; settings: Myc^low group, 6 μM, 4 days
Description: (§7) FIG. 5. illustrates that MYC abundance is a univariate predicator of the response of human tumor cell lines to H-1152 by showing the cytotoxicity of H-1152 for 75 human cancer cell lines. Cell lines in the Myc^high group and the Myc^low group were treated for four days with either 0.1% DMSO or 6 μM H-1152. Cell viability was then determined by the trypan blue exclusion assay. FIG. 5(A) is a histogram representing the average of two independent experiments. […] Results are presented as the percentage of dead cells in the presence of H-1152 minus that in the presence of DMSO. Red, yellow and green dots represent cell lines with abundant Myc, MycN and L-Myc respectively. Comparison of the two data sets with two-sided Mann-Whitney test indicates p<0.0001.
(§8) The Myc^high group also includes 8 cell lines with abundant MycN expression and 3 cell lines abundantly expressing L-Myc. […] (FIG. 5 A, B). The difference between the two data sets was statistically significant.

[11] = system: NCI-H211 xenograft tumors; assay: Xenograft tumor growth in athymic mice, NCI-H211; assay type: in vivo; settings: Myc^low NCI-H211, 60 mg/kg oral gavage twice a day
Source text: as §3, §4, §5

[12] = system: Myc^high human cancer cell lines; assay: Cytotoxicity in Myc^high human cancer cell lines (trypan blue); assay type: cell-based; settings: 6 μM, 4 days
Description: as §7, §8

[13] = system: NCI-H524 xenograft tumors; assay: Xenograft tumor growth in athymic mice, NCI-H524; assay type: in vivo; settings: Myc^high NCI-H524, 60 mg/kg oral gavage twice a day
Source text: as §3, §4, §5

ROCKII = ROCKII (Homo sapiens, UniProt O75116); settings: cited from earlier work
Sequence of ROCKII (O75116 whole entry, species assumed): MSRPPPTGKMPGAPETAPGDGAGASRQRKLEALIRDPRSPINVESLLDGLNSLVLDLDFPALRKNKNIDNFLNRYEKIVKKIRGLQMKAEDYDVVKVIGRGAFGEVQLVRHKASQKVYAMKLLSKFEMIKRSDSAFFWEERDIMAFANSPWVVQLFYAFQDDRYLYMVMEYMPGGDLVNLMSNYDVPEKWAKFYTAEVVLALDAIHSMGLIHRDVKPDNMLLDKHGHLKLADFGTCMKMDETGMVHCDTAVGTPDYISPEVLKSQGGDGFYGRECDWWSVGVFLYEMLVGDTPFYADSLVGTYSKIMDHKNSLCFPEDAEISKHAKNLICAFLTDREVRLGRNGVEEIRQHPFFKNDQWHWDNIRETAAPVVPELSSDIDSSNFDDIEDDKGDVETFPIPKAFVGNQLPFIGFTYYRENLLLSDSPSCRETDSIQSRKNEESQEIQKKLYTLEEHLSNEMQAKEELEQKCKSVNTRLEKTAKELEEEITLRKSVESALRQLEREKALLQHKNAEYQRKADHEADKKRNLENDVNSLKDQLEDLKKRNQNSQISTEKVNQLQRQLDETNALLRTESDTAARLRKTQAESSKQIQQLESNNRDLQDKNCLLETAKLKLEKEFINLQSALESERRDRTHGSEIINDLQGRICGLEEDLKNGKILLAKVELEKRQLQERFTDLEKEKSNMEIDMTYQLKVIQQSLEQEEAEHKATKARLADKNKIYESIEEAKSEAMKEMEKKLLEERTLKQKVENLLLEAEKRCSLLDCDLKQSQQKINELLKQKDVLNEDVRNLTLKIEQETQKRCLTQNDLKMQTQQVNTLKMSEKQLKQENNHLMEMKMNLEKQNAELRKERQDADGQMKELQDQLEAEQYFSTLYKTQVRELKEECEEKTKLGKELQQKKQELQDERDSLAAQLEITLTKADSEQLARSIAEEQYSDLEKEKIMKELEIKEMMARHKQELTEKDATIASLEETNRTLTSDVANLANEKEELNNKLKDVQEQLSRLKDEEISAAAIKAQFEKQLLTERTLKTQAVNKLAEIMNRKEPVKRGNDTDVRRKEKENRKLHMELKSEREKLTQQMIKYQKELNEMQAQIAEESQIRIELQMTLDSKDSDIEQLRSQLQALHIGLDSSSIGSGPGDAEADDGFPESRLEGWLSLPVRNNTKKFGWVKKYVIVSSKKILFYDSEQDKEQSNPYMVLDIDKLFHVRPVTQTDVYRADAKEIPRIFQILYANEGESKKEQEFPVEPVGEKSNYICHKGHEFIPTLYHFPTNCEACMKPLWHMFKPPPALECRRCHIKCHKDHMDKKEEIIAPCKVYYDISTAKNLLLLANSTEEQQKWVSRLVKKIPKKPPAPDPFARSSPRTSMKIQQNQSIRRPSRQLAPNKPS

[14] = 6 μM H-1152 together with 200 nM 4-OHT

Which “cell death, agent alone” value [1] does the source give for 4-hydroxy-tamoxifen [4-OH] here?
Its value is “low levels of cell death”.

What about the “cell death, agent alone” value [2] of the same compound?
The value was “low levels of cell death”.

Which tumor development [3] does the source give for `Cc1cncc2cccc(S(=O)(=O)N3CCCNC[C@@H]3C)c12` [H-1152, dimethylfasudil] here?
Its tumor development is “slowed down tumor development”.

What about the “mitochondria-dependent apoptosis pathway events (membrane potential, cytochrome C release, caspase 9)” value (RPE-MYC cells [4]; 48 hours) of the same compound?
The value was “cell death via activation of the mitochondria-dependent apoptosis pathway”.

What about the “apoptotic features (nuclear condensation, caspase 3 activation, PARP cleavage)” value (RPE-MYC cells [4]; 3 days) of the same compound?
Its value is “Symptoms of classical apoptosis were recorded”.

What about the cell lethality [1, 14] of the same compound?
The cell lethality was “over 30%”.

And the “cell death, agent alone” value [1]?
The value was “low levels of cell death”.

What about the cell lethality (RPE-MYC cells [5]; 6 μM H-1152 + 100 μM z-VAD-fmk) of the same compound?
Its cell lethality is 15%.

And the “cell death in comparison of ROCK inhibitors” value (RPE-MYC cells [5])?
Its value is “significant cell death”.

And the cells killed (RPE-NEO cells)?
Its cells killed is “none”.

And the tumor development [6]?
Its tumor development is “failed to impact tumor development”.

What about the cell lethality [7] of the same compound?
Its cell lethality is “high cell lethality”.

What about the “cell death among cells with various active oncogenes” value [8] of the same compound?
The value was “only MYC expressing cells demonstrated cell death”.

What about the cell toxicity [9] of the same compound?
The cell toxicity was “negligible effect on cell toxicity”.

What about the cell lethality [2, 14] of the same compound?
The cell lethality was “over 30%”.

What about the “cell death, agent alone” value [2] of the same compound?
Its value is “low levels of cell death”.

And the cell lethality (IM-9 cells)?
Its cell lethality is “approximately 30%”.

What about the “cell lines sensitive to H-1152” value [10] of the same compound?
Its value is 3 of 24.

And the tumor development [11]?
Its tumor development is “failed to impact tumor development”.

And the “cell death across cell lines, Myc^high versus Myc^low” value [12]?
Its value is “massive cell death in a much higher percentage of cell lines in the Myc^high group”.

And the “cell lines that failed to undergo apoptosis” value ([12]; Myc^high group)?
The value was 11 of the 51.

What about the tumor development [13] of the same compound?
The tumor development was “stabilized tumor development”.

Which IC50 (ROCKII) does the source give for `C[C@H]1CNCCCN1S(=O)(=O)c1cccc2cncc(F)c12` [Rapasudil] here?
The IC50 was 0.019 µM.
